Experimental data as given in patent publication US12590098B2, “Pyrimido pyrimidinone compound and pharmaceutical composition comprising the same” (AXCESO BIOPHARMA CO., LTD., priority 2020, dated 2026).

Assays:
PD-L1 expression [1] = experiment: PD-L1 promoter-luciferase reporter assay in A549 pGL4.14-PD-L1 cell line; assay type: cell-based; details: Homo sapiens, IFNγ (50 ng/ml) inducer, luminometer, read-out: PD-L1 expression inhibition rate in A549 (%)
Description: The PD-L1 promoter gene region was inserted into the pGL4.14-[luc2/Hygro] vector (promega, Madison, WI) in the following way to prepare a promoter-reporter construct for measuring gene transcription activity.
After preparing primer including KpnI and Xhol restriction enzyme sites in PD-L1, PCR (polymerase chain reaction) was performed, and promoter region DNA was separated by performing electrophoresis on an agarose gel. The pGL4.14-[1uc2/Hygro] vector containing firefly luciferase as a reporter gene was treated with the same restriction enzyme, and separated by agarose gel electrophoresis and gel extraction. The pure isolated PD-L1 promoter gene region and the pGL4.14-[luc2/Hygro] vector were reacted at 50° C. for 1 hour using in-fusion DNA ligase (Takara), followed by E. coli transformation to prepare a promoter-reporter construct into which the […] promoter was inserted, which was named pGL4.14-PD-L1.
To measure the transcriptional activity of the PD-L1 gene promoter, A549 cells were transiently transfected with the PD-L1 promoter-reporter construct as follows, and then the luciferase activity of the cell extract was measured.
The DNA-lipofectamine complex was prepared according to the manufacturer's protocol using 0.1 μtg of promoter-reporter construct plasmid and Lipofectamine 2000 reagent (Invitrogen). Opti-MEM medium (Invitrogen) was used in the process of forming a complex between DNA and Lipofectamine 2000. A549 cells were prepared at 2.5×10^5 cells per well (1 ml) in a 12-well plate by checking the number of cells immediately before adding the DNA. The DNA-lipofectamine complex was carefully mixed with A549 cells and reacted in an incubator at 37° C. for 6 hours. Thereafter, the medium was changed to search for transfected cells, and PD-L1-transfected A549 cells were found through a luciferase test. This was named A549 pGL4.14-PD-L1 cell line and the experiment was conducted. IFNγ (50 ng/ml) was used as a PD-L1 inducer.
The A549 pGL4.14-PD-L1 cell line was treated with the pyrimido pyrimidinone derivatives of Example at concentrations of 0.1 μM and 1.0 μM, respectively, and PD-L1 expression inhibition was evaluated using a luminometer. For comparison, the same experiment was performed for GS9973 (Entospletinib) known to have PD-L1 expression inhibitory activity.
The inhibition rate of PD-L1 expression was calculated by Equation 1 below. PD-L1 expression inhibition rate (%)=100−[(A/B)×100] [Equation 1]
wherein, A is a value when treated with a drug, and B is a value when not treated with a drug.

PD-L1 = experiment: Western-blot analysis of PD-L1 in tumors excised from B16F10 mice; parameters: species or system mouse; details: tumors extracted from mice after the in vivo test of Experimental Example 2; FIG. 3
From the text: After the in vivo tumor inhibition test using compound 1-8 of Experimental Example 2, the PD-L1 expression inhibition effect in tumor cells extracted from mice was confirmed through Western-blot analysis. For comparison, the efficacy of inhibiting PD-L1 expression in tumor cells extracted from the control mice was also confirmed through Western-blot analysis.
Proteins were identified with the ChemiDoc™ imaging system (Bio-rad) using a chemiluminescence (ECL) kit (elpis biotec, EBP-1073).

PD-L1 expression [2] = details: melanoma model; cited from earlier work
melanoma cell = details: melanoma model; cited from earlier work
[3] = tested on: cell surface PD-L1 expression; details: kinase inhibitor library screening, melanoma; cited from earlier work

## Cc1ncc(NC(=O)c2cccc(C(F)(F)F)c2)cc1N1Cc2cnc(Nc3ccccc3)nc2N(C)C1=O [Compound I-1, N-(6-methyl-5-(1-methyl-2-oxo-7-(phenylamino)-1,2-dihydropyrimido[4,5-d]pyrimidin-3(4H)-yl)pyridin-3-yl)-3-(trifluoromethyl)benzamide]
PD-L1 expression [1]
  inhibition at 0.1 µM: 12.8%
  inhibition at 1 µM: 87.1%

## Cc1ncc(NC(=O)c2cccc(C(C)(C)C)c2)cc1N1Cc2cnc(Nc3ccccc3)nc2N(C)C1=O [Compound I-2, 3-(t-butyl)-N-(6-methyl-5-(1-methyl-2-oxo-7-(phenylamino)-1,2-dihydropyrimido[4,5-d]pyrimidin-3(4H)-yl)pyridin-3-yl)benzamide]
PD-L1 expression [1]
  inhibition at 0.1 µM: 32.6%
  inhibition at 1 µM: 72.5%

## COc1ncc(NC(=O)c2cccc(C(F)(F)F)c2)cc1N1Cc2cnc(Nc3ccccc3)nc2N(C)C1=O [Compound I-3, N-(6-methoxy-5-(1-methyl-2-oxo-7-(phenylamino)-1,2-dihydropyrimido[4,5-d]pyrimidin-3(4H)-yl)pyridin-3-yl)-3-(trifluoromethyl)benzamide]
PD-L1 expression [1]
  inhibition at 0.1 µM: 29.3%
  inhibition at 1 µM: 92.5%

## Cc1ncc(NC(=O)c2ccc(C3=NC(C)(C)CO3)cc2)cc1N1Cc2cnc(Nc3ccccc3)nc2N(C)C1=O [Compound I-4, 4-(4,4-dimethyl-4,5-dihydrooxazol-2-yl)-N-(6-methyl-5-(1-methyl-2-oxo-7-(phenylamino)-1,2-dihydropyrimido[4,5-d]pyrimidin-3(4H)-yl)pyridin-3-yl)benzamide]
PD-L1 expression [1]
  inhibition at 0.1 µM: 20.1%
  inhibition at 1 µM: 82.5%

## Cc1ncc(NC(=O)c2cccc(C3=NC(C)(C)CO3)c2)cc1N1Cc2cnc(Nc3ccccc3)nc2N(C)C1=O [Compound I-5, 3-(4,4-dimethyl-4,5-dihydrooxazol-2-yl)-N-(6-methyl-5-(1-methyl-2-oxo-7-(phenylamino)-1,2-dihydropyrimido[4,5-d]pyrimidin-3(4H)-yl)pyridin-3-yl)benzamide]
PD-L1 expression [1]
  inhibition at 0.1 µM: 19.4%
  inhibition at 1 µM: 81.9%

## COc1ncc(NC(=O)c2cccc(C(C)(C)C)c2)cc1N1Cc2cnc(Nc3ccccc3)nc2N(C)C1=O [Compound I-6, 3-(t-butyl)-N-(6-methoxy-5-(1-methyl-2-oxo-7-(phenylamino)-1,2-dihydropyrimido[4,5-d]pyrimidin-3(4H)-yl)pyridin-3-yl)benzamide]
PD-L1 expression [1]
  inhibition at 0.1 µM: 13.9%
  inhibition at 1 µM: 94.1%

## COc1ncc(NC(=O)c2cccc(C3=NC(C)(C)CO3)c2)cc1N1Cc2cnc(Nc3ccccc3)nc2N(C)C1=O [Compound I-7, 3-(4,4-dimethyl-4,5-dihydrooxazol-2-yl)-N-(6-methoxy-5-(1-methyl-2-oxo-7-(phenylamino)-1,2-dihydropyrimido[4,5-d]pyrimidin-3(4H)-yl)pyridin-3-yl)benzamide]
PD-L1 expression [1]
  inhibition at 0.1 µM: 13.1%
  inhibition at 1 µM: 85.3%

## CN1C(=O)N(c2cc(NC(=O)c3cccc(C(F)(F)F)c3)cnc2Cl)Cc2cnc(Nc3ccccc3)nc21 [Compound I-8, N-(6-chloro-5-(1-methyl-2-oxo-7-(phenylamino)-1,2-dihydropyrimido[4,5-d]pyrimidin-3(4H)-yl)pyridin-3-yl)-3-(trifluoromethyl)benzamide]
PD-L1 expression [1]
  inhibition at 0.1 µM: 60.4%
  inhibition at 1 µM: 97.5%
PD-L1
  expression of PD-L1 in tumor compared to the control group (Western blot): reduced

## CN1C(=O)N(c2cc(NC(=O)c3cccc(C(C)(C)C)c3)cnc2Cl)Cc2cnc(Nc3ccccc3)nc21 [Compound I-9, 3-(t-butyl)-N-(6-chloro-5-(1-methyl-2-oxo-7-(phenylamino)-1,2-dihydropyrimido[4,5-d]pyrimidin-3(4H)-yl)pyridin-3-yl)benzamide]
PD-L1 expression [1]
  inhibition at 0.1 µM: 48.8%
  inhibition at 1 µM: 97.2%

## CN1C(=O)N(c2cc(NC(=O)c3csc(C(C)(C)C)n3)cnc2Cl)Cc2cnc(Nc3ccccc3)nc21 [Compound I-10, 2-(t-butyl)-N-(6-chloro-5-(1-methyl-2-oxo-7-(phenylamino)-1,2-dihydropyrimido[4,5-d]pyrimidin-3(4H)-yl)pyridin-3-yl)thiazole-4-carboxamide]
PD-L1 expression [1]
  inhibition at 0.1 µM: 67%
  inhibition at 1 µM: 98%

## CN1C(=O)N(c2cc(NC(=O)c3cccc(C(F)(F)F)c3)cnc2Cl)Cc2cnc(Nc3ccc(O)cc3)nc21 [Compound I-11, N-(6-chloro-5-(7-((4-hydroxyphenyl)amino)-1-methyl-2-oxo-1,2-dihydropyrimido[4,5-d]pyrimidin-3(4H)-yl)pyridin-3-yl)-3-(trifluoromethyl)benzamide]
PD-L1 expression [1]
  inhibition at 0.1 µM: 65%
  inhibition at 1 µM: 98%

## c1cn2cc(-c3ccc4cn[nH]c4c3)nc(Nc3ccc(N4CCOCC4)cc3)c2n1 [GS9973(Entospletinib), Entospletinib, reference compound]
PD-L1 expression [1]
  inhibition at 0.1 µM: 10.3%
  inhibition at 1 µM: 47.1%

## O=c1cc(-c2ccc(O)cc2)oc2cc(O)cc(O)c12 [apigenin]
PD-L1 expression [2]
  suppression of PD-L1 expression induced by IFN-γ: significantly suppress
Melanoma cell
  melanoma cell growth inhibitory effects: melanoma cell growth inhibitory effects

## COc1cc(/C=C/C(=O)CC(=O)/C=C/c2ccc(O)c(OC)c2)ccc1O [curcumin]
Melanoma cell
  melanoma cell growth inhibitory effects: melanoma cell growth inhibitory effects

## CNC(=O)c1cc(Oc2ccc(NC(=O)Nc3ccc(Cl)c(C(F)(F)F)c3)c(F)c2)ccn1 [regorafenib]
[3]
  reduction of cell surface PD-L1 expression level: more than 50%
